Molecular target: T1, Human M4 (Homo sapiens, UniProt P08173)
T1 construct: Human or rat M4 cDNA, along with the chimeric G protein Gqi5, were transfected into Chinese hamster ovary (CHO-K1) cells; expressed in transfected cells; host or cells: CHO-K1 (Chinese hamster ovary, ATCC), stably co-expressing Gqi5
T1 sequence (P08173 1-479): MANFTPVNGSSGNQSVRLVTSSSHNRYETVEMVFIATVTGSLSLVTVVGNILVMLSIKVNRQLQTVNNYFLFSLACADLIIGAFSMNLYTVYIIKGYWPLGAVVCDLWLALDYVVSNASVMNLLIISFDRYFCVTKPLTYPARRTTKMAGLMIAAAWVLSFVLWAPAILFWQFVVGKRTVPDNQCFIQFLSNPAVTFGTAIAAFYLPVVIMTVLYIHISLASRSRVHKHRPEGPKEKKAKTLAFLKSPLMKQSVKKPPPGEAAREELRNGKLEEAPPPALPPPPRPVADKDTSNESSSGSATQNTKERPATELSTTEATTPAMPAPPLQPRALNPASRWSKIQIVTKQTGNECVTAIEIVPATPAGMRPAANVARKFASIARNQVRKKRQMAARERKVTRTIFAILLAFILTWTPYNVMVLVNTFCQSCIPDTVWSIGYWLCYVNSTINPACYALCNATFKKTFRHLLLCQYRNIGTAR
Assay: mAChR M4 cell-based functional assay (calcium flux, decrease of EC80 acetylcholine response)
Settings: for remaining activity at 30 µM: % ACh maximum at 30 μM, read-out: Human M4 Emin; for IC50: M4/Gqi5/CHO-K1 cells, decrease of response to EC80 acetylcholine
Protocol: Human or rat M4 cDNA, along with the chimeric G protein Gqi5, were transfected into Chinese hamster ovary (CHO-K1) cells purchased from the American Type Culture Collection using Lipofectamine2000. M4/Gqi5/CHO cells were grown in Ham's F-12 medium containing 10% heat-inactivated fetal bovine serum (FBS), 20 mM HEPES, 500 μg/mL G418 sulfate, and 200 μg/mL Hygromycin B.
For high throughput measurement of agonist-evoked increases in intracellular calcium, CHO-K1 cells stably expressing muscarinic receptors were plated in growth medium lacking G418 and hygromycin at 15,000 cells/20 μL/well in Greiner 384-well black-walled, tissue culture (TC)-treated, clear-bottom plates (VWR). Cells were incubated overnight at 37° C. and 5% CO2. The next day, cells were washed using an ELX 405 (BioTek) with assay buffer; the final volume was then aspirated to 20 μL. Next, 20 μL of a 2.3 μM stock of Fluo-4/acetoxymethyl ester (Invitrogen, Carlsbad, Calif.), prepared as a 2.3 mM stock in DMSO and mixed in a 1:1 ratio with 10% (w/v) Pluronic F-127 and diluted in assay buffer, was added to the wells and the cell plates were incubated for 50 min at 37° C. and 5% CO2. Dye was removed by washing with the ELX 405 and the final volume was aspirated to 20 μL. Compound master plates were formatted in a 10 point concentration-response curve (CRC) format (1:3 dilutions) in 100% DMSO with a starting concentration of 10 or 1 mM using a BRAVO liquid handler (Agilent). Test compound CRCs were then transferred to daughter plates (240 nL) using the Echo acoustic plate reformatter (Labcyte, Sunnyvale, Calif.) and then diluted into assay buffer (40 μL) to a 2×stock using a Thermo Fisher Combi (Thermo Fisher Scientific, Waltham, Mass.).
Calcium flux was measured using the Functional Drug Screening System (FDSS) 6000 or 7000 (Hamamatsu Corporation, Tokyo, Japan) as an increase in the fluorescent static ratio. Compounds were applied to cells (20 μL, 2×) using the automated system of the FDSS at 2 seconds into the protocol and the data were collected at 1 Hz. At 143 s, 10 μL of an EC20 concentration of the muscarinic receptor agonist acetylcholine was added (5×), followed by the addition of 12 μL of an EC80 concentration of acetylcholine at the 268 s time point (5×). Agonist activity was analyzed as a concentration-dependent increase in calcium mobilization upon compound addition. Positive allosteric modulator activity was analyzed as a concentration-dependent increase in the EC20 acetylcholine response. Antagonist activity was analyzed as a concentration-dependent decrease in the EC80 acetylcholine response; for the purposes of the tables herein, an IC50 (inhibitory concentration 50) was calculated as a concentration-dependent decrease of the response elicited by an EC80 concentration of acetylcholine. Concentration-response curves were generated using a four-parameter logistical equation in XLFit curve fitting software (IDBS, Bridgewater, N.J.) for Excel (Microsoft, Redmond, Wash.) or Prism (GraphPad Software, Inc., San Diego, Calif.) or the Dotmatics software platform (Dotmatics, Bishop's Stortford, UK).
Compounds were synthesized as described above. Activity (IC50 and Emin) was determined in the mAChR M4 cell-based functional assay as described above and the data are shown in Table 2.

Structure (SMILES) | remaining activity at 30 µM [%] | IC50 [nM]
Cn1cc2cc(-c3cc(C(F)(F)F)c(N[C@H]4C[C@@H]5CN(C[C@H]6CCOC6)C[C@@H]5C4)nn3)ccc2n1 [Example 33, (3aR,5s,6aS)-N-(6-(2-methyl-2H-indazol-5-yl)-4-(trifluoro-methyl)pyridazin-3-yl)-2-(((R)-tetrahydrofuran-3-yl)methyl)octahydro-cyclopenta[c]pyrrol-5-amine] | 6 | 188
Cn1cc2cc(-c3cc(C(F)(F)F)c(N[C@H]4C[C@@H]5CN(C[C@H]6COCCO6)C[C@@H]5C4)nn3)ccc2n1 [Example 34, (3aR,5s,6aS)-2-(((S)-1,4-dioxan-2-yl)methyl)-N-(6-(2-methyl-2H-indazol-5-yl)-4-(trifluoromethyl)pyridazin-3-yl)octahydro-cyclopenta[c]pyrrol-5-amine] | 6 | 32.9
Cn1cc2cc(-c3cc(C(F)(F)F)c(N[C@H]4C[C@@H]5CN(C[C@@H]6COCCO6)C[C@@H]5C4)nn3)ccc2n1 [Example 35, (3aR,5s,6aS)-2-(((R)-1,4-dioxan-2-yl)methyl)-N-(6-(2-methyl-2H-indazol-5-yl)-4-(trifluoromethyl)pyridazin-3-yl)octahydro-cyclopenta[c]pyrrol-5-amine] | 6 | 147
Fc1ccc(F)c(-c2cc(C(F)(F)F)c(N[C@H]3C[C@@H]4CN(CC5CCOCC5)C[C@@H]4C3)nn2)c1 [Example 38, (3aR,5s,6aS)-N-(6-(2,5-difluorophenyl)-4-(trifluoromethyl)pyridazin-3-yl)-2-((tetrahydro-2H-pyran-4-yl)methyl)octahydro-cyclopenta[c]pyrrol-5-amine] | 3 | 207
Cc1c(-c2cc(C(F)(F)F)c(N[C@H]3C[C@@H]4CN(CC5CCOCC5)C[C@@H]4C3)nn2)ccc2nn(C)cc12 [Example 39, (3aR,5s,6aS)-N-(6-(2,4-dimethyl-2H-indazol-5-yl)-4-(trifluoromethyl)pyridazin-3-yl)-2-((tetrahydro-2H-pyran-4-yl)methyl)octahydro-cyclopenta[c]pyrrol-5-amine] | 2 | 2.1
Cc1nn(C)c(C)c1-c1cc(C(F)(F)F)c(N[C@H]2C[C@@H]3CN(CC4CCOCC4)C[C@@H]3C2)nn1 [Example 40, (3aR,5s,6aS)-2-((tetrahydro-2H-pyran-4-yl)methyl)-N-(4-(trifluoromethyl)-6-(1,3,5-trimethyl-1H-pyrazol-4-yl)pyridazin-3-yl)octahydro-cyclopenta[c]pyrrol-5-amine] | 4 | 184
FC(F)(F)c1ccccc1-c1cc(C(F)(F)F)c(N[C@H]2C[C@@H]3CN(CC4CCOCC4)C[C@@H]3C2)nn1 [Example 41, (3aR,5s,6aS)-2-((tetrahydro-2H-pyran-4-yl)methyl)-N-(4-(trifluoromethyl)-6-(2-(trifluoromethyl)phenyl)pyridazin-3-yl)octahydro-cyclopenta[c]pyrrol-5-amine] | 3 | 13.6
Fc1cc(F)c(-c2cc(C(F)(F)F)c(N[C@H]3C[C@@H]4CN(CC5CCOCC5)C[C@@H]4C3)nn2)cc1F [Example 42, (3aR,5s,6aS)-2-((tetrahydro-2H-pyran-4-yl)methyl)-N-(4-(trifluoromethyl)-6-(2,4,5-trifluorophenyl)pyridazin-3-yl)octahydro-cyclopenta[c]pyrrol-5-amine] | 3 | 237
Fc1cc(F)c(F)c(-c2cc(C(F)(F)F)c(N[C@H]3C[C@@H]4CN(CC5CCOCC5)C[C@@H]4C3)nn2)c1 [Example 43, (3aR,5s,6aS)-2-((tetrahydro-2H-pyran-4-yl)methyl)-N-(4-(trifluoromethyl)-6-(2,3,5-trifluorophenyl)pyridazin-3-yl)octahydro-cyclopenta[c]pyrrol-5-amine] | 3 | 290
Cc1ccc(C)c(-c2cc(C(F)(F)F)c(N[C@H]3C[C@@H]4CN(CC5CCOCC5)C[C@@H]4C3)nn2)c1 [Example 44, (3aR,5s,6aS)-N-(6-(2,5-dimethylphenyl)-4-(trifluoromethyl)pyridazin-3-yl)-2-((tetrahydro-2H-pyran-4-yl)methyl)octahydro-cyclopenta[c]pyrrol-5-amine] | 2 | 52.8
Fc1ccc(C(F)(F)F)c(-c2cc(C(F)(F)F)c(N[C@H]3C[C@@H]4CN(CC5CCOCC5)C[C@@H]4C3)nn2)c1 [Example 45, (3aR,5s,6aS)-N-(6-(5-fluoro-2-(trifluoromethyl)phenyl)-4-(trifluoromethyl)pyridazin-3-yl)-2-((tetrahydro-2H-pyran-4-yl)methyl)octahydro-cyclopenta[c]pyrrol-5-amine] | 3 | 35.3
Cc1c(F)cc(F)cc1-c1cc(C(F)(F)F)c(N[C@H]2C[C@@H]3CN(CC4CCOCC4)C[C@@H]3C2)nn1 [Example 46, (3aR,5s,6aS)-N-(6-(3,5-difluoro-2-methylphenyl)-4-(trifluoromethyl)pyridazin-3-yl)-2-((tetrahydro-2H-pyran-4-yl)methyl)octahydro-cyclopenta[c]pyrrol-5-amine] | 4 | 384
[2H]C([2H])([2H])OC([2H])([2H])c1ccc(F)cc1-c1cc(C(F)(F)F)c(N[C@H]2C[C@@H]3CN(CC4CCOCC4)C[C@@H]3C2)nn1 [Example 47, (3aR,5s,6aS)-N-(6-(5-fluoro-2-((methoxy-d3)methyl-d2)phenyl)-4-(trifluoromethyl)pyridazin-3-yl)-2-((tetrahydro-2H-pyran-4-yl)methyl)octahydro-cyclopenta[c]pyrrol-5-amine] | 4 | 70.9
Fc1ccc(F)c(-c2cc(C(F)(F)F)c(N[C@H]3C[C@@H]4CN(Cc5ccccn5)C[C@@H]4C3)nn2)c1 [Example 48, (3aR,5s,6aS)-N-(6-(2,5-difluorophenyl)-4-(trifluoromethyl)pyridazin-3-yl)-2-(pyridin-2-ylmethyl)octahydro-cyclopenta[c]pyrrol-5-amine] | 3 | 615
COc1ccc(F)cc1-c1cc(C(F)(F)F)c(N[C@H]2C[C@@H]3CN(CC4CCOCC4)C[C@@H]3C2)nn1 [Example 49, (3aR,5s,6aS)-N-(6-(5-fluoro-2-methoxyphenyl)-4-(trifluoromethyl)pyridazin-3-yl)-2-((tetrahydro-2H-pyran-4-yl)methyl)octahydro-cyclopenta[c]pyrrol-5-amine] | 3 | 94.3
[2H]C([2H])(C1CCOCC1)N1C[C@H]2C[C@H](Nc3nnc(-c4cc(F)ccc4F)cc3C(F)(F)F)C[C@H]2C1 [Example 50, (3aR,5s,6aS)-N-(6-(2,5-difluorophenyl)-4-(trifluoromethyl)pyridazin-3-yl)-2-((tetrahydro-2H-pyran-4-yl)methyl-d2)octahydro-cyclopenta[c]pyrrol-5-amine] | 3 | 144
